Test results published in patent publication US10227331B2 (priority 2015, dated 2019).

Legend:
[1] = test system: P. aeruginosa expressing IMP-1, efflux+ (MB9798); type: cell-based, Pseudomonas aeruginosa; settings: for P. aeruginosa expressing IMP-1, efflux+ (MB9798) MITC95: imipenem at 2 μg/mL, in the presence of a class A, C, D serine β-lactamase inhibitor closely related to relebactam; for Efflux ratio: ratio MITC95 PA_9798/MITC95 PA_9799
From the text: (§1) The strain background is Pseudomonas aeruginosa PAO1.

IMP-1 = IMP-1 (Serratia marcescens, UniProt P52699); assay: biochemical; type: biochemical; settings: CCF2-FA substrate, 2 hours at 25° C; read-out: IMP-1 IC50
Chain of IMP-1 (P52699 whole entry, looked up, species assumed): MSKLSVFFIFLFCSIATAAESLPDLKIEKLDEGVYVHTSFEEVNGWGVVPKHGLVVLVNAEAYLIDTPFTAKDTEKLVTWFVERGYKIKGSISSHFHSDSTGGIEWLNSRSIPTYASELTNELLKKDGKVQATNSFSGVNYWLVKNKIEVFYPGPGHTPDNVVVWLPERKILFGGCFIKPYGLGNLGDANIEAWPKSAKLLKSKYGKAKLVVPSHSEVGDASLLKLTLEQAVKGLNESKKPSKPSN
Outline: (§2)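 Two-hour, 25° C incubation of enzyme with inhibitor and CCF2-FA (7-hydroxycoumarin–cephalosporin–fluorescein). Fluorescence read-out; IC50 via 4-parameter fit.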

NDM-1 = NDM-1 (Klebsiella pneumoniae, UniProt C7C422); assay: biochemical; type: biochemical; settings: CCF2-FA substrate, 2 hours at 25° C; read-out: NDM-1 IC50
Chain of NDM-1 (C7C422 whole entry, looked up, species assumed): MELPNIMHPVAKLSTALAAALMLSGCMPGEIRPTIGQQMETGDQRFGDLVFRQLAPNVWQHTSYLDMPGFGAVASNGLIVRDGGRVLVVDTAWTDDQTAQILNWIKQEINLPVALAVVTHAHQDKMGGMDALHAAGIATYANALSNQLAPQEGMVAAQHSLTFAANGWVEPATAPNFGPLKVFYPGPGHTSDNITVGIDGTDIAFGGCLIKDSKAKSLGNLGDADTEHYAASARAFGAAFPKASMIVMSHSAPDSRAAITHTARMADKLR
Outline: as §2

[2] = test system: Escherichia coli expressing NDM-1 (CLB30005, CLB30016); type: cell-based; settings: with imipenem 1 μg/ml; 95% inhibition of bacterial growth
Outline: (§3)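 Colonies from overnight 35 °C blood-agar cultures were suspended in saline, diluted 1:100 into 1.1× CAMHB and exposed to test compound with or without imipenem at 1 μg/ml. After 22–24 h at 35 °C, absorbance was read to find the concentration restoring imipenem susceptibility.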

[3] = test system: Klebsiella pneumoniae expressing VIM-1 (IHMA599644); type: cell-based; settings: with imipenem 1 μg/ml; 95% inhibition of bacterial growth
Outline: as §3

[4] = test system: Serratia marcescens expressing IMP-1 (CL5741); type: cell-based; settings: with imipenem 1 μg/ml; 95% inhibition of bacterial growth
Outline: as §3

VIM-1 = VIM-1 (Pseudomonas aeruginosa (strain ATCC 15692 / DSM 22644 / CIP 104116 / JCM 14847 / LMG 12228 / 1C / PRS 101 / PAO1), UniProt A0A0F7KYQ8); assay: biochemical; settings: CCF2-FA substrate, 2 hours at 25° C
Outline: as §2

[5] = test system: P. aeruginosa expressing IMP-1, efflux− (MB9799); assay: Efflux: concentration of MBL inhibitor which restores susceptibility to imipenem; type: cell-based, Pseudomonas aeruginosa; settings: imipenem at 2 μg/mL, in the presence of a class A, C, D serine β-lactamase inhibitor closely related to relebactam
From the text: as §1

SMILES	P. aeruginosa expressing IMP-1, efflux+ (MB9798) MITC95 [1]	Efflux ratio [1]	IC50 (IMP-1)	IC50 (NDM-1)	Escherichia coli expressing NDM-1 (CLB30016) MITC95 [2]	Klebsiella pneumoniae expressing VIM-1 (IHMA599644) MITC95 [3]	Serratia marcescens expressing IMP-1 (CL5741) MITC95 [4]	IC50 (VIM-1)	P. aeruginosa expressing IMP-1, efflux− (MB9799) MITC95 [5]
NCCS(=O)(=O)c1ccc(-c2cnc3cccnc3c2)c(-c2nnn[nH]2)c1S(N)(=O)=O.O=C(O)C(F)(F)F [Example 134, 2-((4-(1,5-naphthyridin-3-yl)-2-sulfamoyl-3-(1H-tetrazol-5-yl)phenyl)sulfonyl)ethanaminium 2,2,2-trifluoroacetate]	25 µM	15.99	2.47 nM	2.65 nM	6.25 µM	6.25 µM	3.125 µM	0.991 nM	1.563 µM
CC(=O)Nc1ccc(-c2ccc(S(=O)(=O)CCN)c(S(N)(=O)=O)c2-c2nnn[nH]2)cn1.O=C(O)C(F)(F)F [Example 135, 2-((4-(6-acetamidopyridin-3-yl)-2-sulfamoyl-3-(1H-tetrazol-5-yl)phenyl)sulfonyl)ethanaminium 2,2,2-trifluoroacetate]	3.125 µM	2.00	1.65 nM	0.265 nM	0.7813 µM	6.25 µM	3.125 µM	1.22 nM	1.563 µM
NCCS(=O)(=O)c1ccc(-c2c[nH]c3nccnc23)c(-c2nnn[nH]2)c1S(N)(=O)=O.O=C(O)C(F)(F)F [Example 136, 2-((4-(5H-pyrrolo[2,3-b]pyrazin-7-yl)-2-sulfamoyl-3-(1H-tetrazol-5-yl)phenyl)sulfonyl)ethanaminium 2,2,2-trifluoroacetate]	12.5 µM	16.00	1.72 nM	2.14 nM	1.563 µM	3.125 µM	1.563 µM	1.19 nM	0.7813 µM
NCCS(=O)(=O)c1ccc(-c2cnc(O)nc2)c(-c2nnn[nH]2)c1S(N)(=O)=O.O=C(O)C(F)(F)F [Example 137, 2-((4-(2-hydroxypyrimidin-5-yl)-2-sulfamoyl-3-(1H-tetrazol-5-yl)phenyl)sulfonyl)ethanaminium 2,2,2-trifluoroacetate]	25 µM	15.99	32.6 nM	16.8 nM	0.7813 µM	3.125 µM	1.563 µM	23.5 nM	1.563 µM
NCCS(=O)(=O)c1ccc(-c2ccnc3ccccc23)c(-c2nnn[nH]2)c1S(N)(=O)=O.O=C(O)C(F)(F)F [Example 138, 2-((4-(quinolin-4-yl)-2-sulfamoyl-3-(1H-tetrazol-5-yl)phenyl)sulfonyl)ethanaminium 2,2,2-trifluoroacetate]	6.25 µM	4.00	1.28 nM	0.8 nM	1.563 µM	6.25 µM	3.125 µM	0.41 nM	1.563 µM
CNC(=O)c1ccc(-c2ccc(S(=O)(=O)CCN)c(S(N)(=O)=O)c2-c2nnn[nH]2)cn1.O=C(O)C(F)(F)F [Example 139, 2-((4-(6-(methylcarbamoyl)pyridin-3-yl)-2-sulfamoyl-3-(1H-tetrazol-5-yl)phenyl)sulfonyl)ethanaminium 2,2,2-trifluoroacetate]	12.5 µM	8.00	3.32 nM	3.96 nM	1.563 µM	6.25 µM	3.125 µM	2.04 nM	1.563 µM
NCCS(=O)(=O)c1ccc(-c2ccc3c(c2)C(=O)NC3)c(-c2nnn[nH]2)c1S(N)(=O)=O.O=C(O)C(F)(F)F [Example 140, 2-((4-(3-oxoisoindolin-5-yl)-2-sulfamoyl-3-(1H-tetrazol-5-yl)phenyl)sulfonyl)ethanaminium 2,2,2-trifluoroacetate]	3.125 µM	4.00	0.488 nM	0.844 nM	1.563 µM	1.563 µM	1.563 µM	0.223 nM	0.7813 µM
NCCS(=O)(=O)c1ccc(-c2ccnc(N)c2)c(-c2nnn[nH]2)c1S(N)(=O)=O.O=C(O)C(F)(F)F [Example 141, 2-((4-(2-aminopyridin-4-yl)-2-sulfamoyl-3-(1H-tetrazol-5-yl)phenyl)sulfonyl)ethanaminium 2,2,2-trifluoroacetate]	6.25 µM	7.02	4.89 nM	4.32 nM	0.25 µM	1.781 µM	0.8906 µM	1.01 nM	0.8906 µM
NCCS(=O)(=O)c1ccc(-c2ccnc3[nH]ccc23)c(-c2nnn[nH]2)c1S(N)(=O)=O.O=C(O)C(F)(F)F [Example 142, 2-((4-(1H-pyrrolo[2,3-b]pyridin-4-yl)-2-sulfamoyl-3-(1H-tetrazol-5-yl)phenyl)sulfonyl)ethanaminium 2,2,2-trifluoroacetate]	3.125 µM	4.00	0.517 nM	0.518 nM	1.563 µM	3.125 µM	1.563 µM	0.153 nM	0.7813 µM
NCCS(=O)(=O)c1ccc(-c2cncc(CO)c2)c(-c2nnn[nH]2)c1S(N)(=O)=O.O=C(O)C(F)(F)F [Example 143, 2-((4-(5-(hydroxymethyl)pyridin-3-yl)-2-sulfamoyl-3-(1H-tetrazol-5-yl)phenyl)sulfonyl)ethanaminium 2,2,2-trifluoroacetate]	12.5 µM	8.00	8.83 nM	11.2 nM	1.563 µM	3.125 µM	3.125 µM	2.02 nM	1.563 µM
N#Cc1ccc(-c2ccc(S(=O)(=O)CCN)c(S(N)(=O)=O)c2-c2nnn[nH]2)cn1.O=C(O)C(F)(F)F [Example 144, 2-((4-(6-cyanopyridin-3-yl)-2-sulfamoyl-3-(1H-tetrazol-5-yl)phenyl)sulfonyl)ethanaminium 2,2,2-trifluoroacetate]	50 µM	31.99	5.59 nM	7.21 nM	0.7813 µM	3.125 µM	3.125 µM	3.04 nM	1.563 µM
NCCS(=O)(=O)c1ccc(-c2ccc(CO)nc2)c(-c2nnn[nH]2)c1S(N)(=O)=O.O=C(O)C(F)(F)F [Example 145, 2-((4-(6-(hydroxymethyl)pyridin-3-yl)-2-sulfamoyl-3-(1H-tetrazol-5-yl)phenyl)sulfonyl)ethanaminium 2,2,2-trifluoroacetate]	12.5 µM	8.00	4.84 nM	4.31 nM	1.563 µM	6.25 µM	3.125 µM	1.25 nM	1.563 µM
NCCS(=O)(=O)c1ccc(-c2ccc3nncn3c2)c(-c2nnn[nH]2)c1S(N)(=O)=O.O=C(O)C(F)(F)F [Example 146, 2-((4-([1,2,4]triazolo[4,3-a]pyridin-6-yl)-2-sulfamoyl-3-(1H-tetrazol-5-yl)phenyl)sulfonyl)ethanaminium 2,2,2-trifluoroacetate]	100 µM	63.98	44.4 nM	20.6 nM	0.7813 µM	6.25 µM	3.125 µM	1.32 nM	1.563 µM
